Read-outs that look alike come from different tables or passages of the source.
Target: T1, CFTR (Homo sapiens, UniProt P13569, DEL508-508)
T1 construct: endogenous in cells; host or cells: primary human bronchial epithelial cells from CF subjects (F508del/MF-HBE), differentiated at air-liquid interface
Assay: HBE assay: Ussing chamber assay of CFTR-mediated short-circuit currents
Type: cell-based
Settings: for EC50: read-out: HBE EC50
Method: 1. Ussing Chamber Assay of CFTR-Mediated Short-Circuit Currents
(§1) Ussing chamber experiments were performed using human bronchial epithelial (HBE) cells derived from CF subjects heterozygous for F508del and a minimal function CFTR mutation (F508del/MF-HBE) and cultured as previously described (Neuberger T, Burton B, Clark H, Van Goor F Methods Mol Biol 2011:741:39-54). After four days the apical media was removed, and the cells were grown at an air liquid interface for >14 days prior to use.
(§2) To isolate the CFTR-mediated short-circuit (ISC) current, F508del/MF-HBE grown on Costar® Snapwell™ cell culture inserts were mounted in an Ussing chamber and the transepithelial ISC was measured under voltage-clamp recording conditions (Vhold=0 mV) at 37° C. The basolateral solution contained (in mM) 145 NaCl, 0.83 K2HPO4, 3.3 KH2PO4, 1.2 MgCl2, 1.2 CaCl2), 10 Glucose, 10 HEPES (pH adjusted to 7.4 with NaOH) and the apical solution contained (in mM) 145 NaGluconate, 1.2 MgCl2, 1.2 CaCl2), 10 glucose, 10 HEPES (pH adjusted to 7.4 with NaOH) and 30 μM amiloride to block the epithelial sodium channel. Forskolin (20 μM) was added to the apical surface to activate CFTR, followed by apical addition of a CFTR inhibitor cocktail consisting of BPO, GlyH-101, and CFTR inhibitor 172 (each at 20 μM final assay concentration) to specifically isolate CFTR currents. The CFTR-mediated ISC (μA/cm^2) for each condition was determined from the peak forskolin response to the steady-state current following inhibition.
2. Identification of Corrector Compounds
The activity of the CFTR corrector compounds on the CFTR-mediated ISC was determined in Ussing chamber studies as described above. The F508del/MF-HBE cell cultures were either incubated with the corrector compounds at a range of concentrations in combination with 1 μM Ivacaftor or were incubated with the corrector compounds at a single fixed concentration of 10 μM in combination with 1 μM Ivacaftor for 18-24 hours at 37° C. and in the presence of 20% human serum. The concentration of corrector compounds with 1 μM Ivacaftor during the 18-24 hours incubations was kept constant throughout the Ussing chamber measurement of the CFTR-mediated ISC to ensure compounds were present throughout the entire experiment.
Ussing Chamber Assay of CFTR-mediated short-circuit currents
as §1, with “(HIBE)” for “(HBE)”, “(F508del/MIF-HIBE)” for “(F508del/MF-HBE)”
as §2, with “KH2PO4,” for “K2HPO4,”
Identification of Corrector Compounds

[1] = Table 11, at 10 μM, read-out: HBE Activity at 10 μM (%)
[2] = Table 10, read-out: HBE Max activity (%)
[3] = Table 11, read-out: HBE Max Activity (%)

T1 sequence (P13569 with tags, fused parts or gaps DEL508-508): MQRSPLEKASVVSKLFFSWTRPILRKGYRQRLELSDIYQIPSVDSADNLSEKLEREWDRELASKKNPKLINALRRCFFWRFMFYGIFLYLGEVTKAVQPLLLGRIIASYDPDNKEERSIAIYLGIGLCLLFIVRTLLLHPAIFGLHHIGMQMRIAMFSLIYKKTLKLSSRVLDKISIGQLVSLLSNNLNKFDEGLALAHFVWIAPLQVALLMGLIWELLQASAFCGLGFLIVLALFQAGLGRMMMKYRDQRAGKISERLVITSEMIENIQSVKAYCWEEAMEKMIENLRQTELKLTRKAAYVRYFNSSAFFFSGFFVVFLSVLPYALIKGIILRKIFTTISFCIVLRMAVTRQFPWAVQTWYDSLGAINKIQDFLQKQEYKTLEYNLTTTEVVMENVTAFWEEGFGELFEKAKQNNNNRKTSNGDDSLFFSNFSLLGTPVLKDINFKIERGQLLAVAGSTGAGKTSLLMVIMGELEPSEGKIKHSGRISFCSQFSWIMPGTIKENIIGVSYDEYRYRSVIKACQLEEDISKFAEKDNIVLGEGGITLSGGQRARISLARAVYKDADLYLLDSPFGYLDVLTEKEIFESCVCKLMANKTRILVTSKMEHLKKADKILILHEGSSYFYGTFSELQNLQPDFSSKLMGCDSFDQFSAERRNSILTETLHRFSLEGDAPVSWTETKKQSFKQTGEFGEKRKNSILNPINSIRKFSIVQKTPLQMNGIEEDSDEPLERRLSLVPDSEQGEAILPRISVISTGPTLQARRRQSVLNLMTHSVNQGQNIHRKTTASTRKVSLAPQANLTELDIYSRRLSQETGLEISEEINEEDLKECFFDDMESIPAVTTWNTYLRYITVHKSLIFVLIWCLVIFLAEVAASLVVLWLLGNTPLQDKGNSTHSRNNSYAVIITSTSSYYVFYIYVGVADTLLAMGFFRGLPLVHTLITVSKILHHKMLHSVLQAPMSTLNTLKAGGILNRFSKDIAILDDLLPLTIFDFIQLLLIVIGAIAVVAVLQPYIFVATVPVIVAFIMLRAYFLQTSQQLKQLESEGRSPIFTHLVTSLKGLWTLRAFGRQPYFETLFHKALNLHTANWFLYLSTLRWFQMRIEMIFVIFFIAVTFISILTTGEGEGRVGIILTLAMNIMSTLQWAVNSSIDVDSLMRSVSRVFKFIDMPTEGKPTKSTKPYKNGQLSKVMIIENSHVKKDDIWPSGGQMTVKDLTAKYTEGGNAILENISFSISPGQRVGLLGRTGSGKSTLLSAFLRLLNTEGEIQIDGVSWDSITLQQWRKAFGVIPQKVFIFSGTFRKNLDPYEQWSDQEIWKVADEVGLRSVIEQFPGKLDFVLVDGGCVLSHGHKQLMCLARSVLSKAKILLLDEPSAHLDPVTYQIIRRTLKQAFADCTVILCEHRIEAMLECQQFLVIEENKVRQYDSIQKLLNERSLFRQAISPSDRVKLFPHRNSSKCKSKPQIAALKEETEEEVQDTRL

For Cc1cccc(C)c1-c1cc2nc(n1)NS(=O)(=O)c1cccc(c1)C(=O)N(CC1CC(C)(C)CO1)[C@H](CC(C)(C)C)CO2 (stereo partly drawn) [Compound 21, (11R)-12-[(4,4-Dimethyloxolan-2-yl)methyl]-6-(2,6-dimethylphenyl)-11-(2,2-dimethylpropyl)-9-oxa-2λ^6-thia-3,5,12,19-tetraazatricyclo[12.3.1.14,8]nonadeca-1(17),4(19),5,7,14(18),15-hexaene-2,2,13-trione], the activation at 10 µM [1] was over 60%.

Cc1cccc(C)c1-c1cc2nc(n1)NS(=O)(=O)c1cccc(c1)C(=O)N(CC1CC(C)(C)OC(C)(C)C1)[C@H](CC(C)(C)C)CO2 [Compound 30, (11R)-6-(2,6-Dimethylphenyl)-11-(2,2-dimethylpropyl)-12-[(2,2,6,6-tetramethyloxan-4-yl)methyl]-9-oxa-2λ^6-thia-3,5,12,19-tetraazatricyclo[12.3.1.14,8]nonadeca-1(18),4,6,8(19),14,16-hexaene-2,2,13-trione] was tested, and the activation at 10 µM [1] was over 60%.

Cc1cccc(C)c1-c1cc2nc(n1)NS(=O)(=O)c1cccc(c1)C(=O)N(Cc1ccc(C3CCCCC3)cn1)[C@H](CC(C)(C)C)CO2 [Compound 50, (11R)-12-[(5-Cyclohexyl-2-pyridyl)methyl]-6-(2,6-dimethylphenyl)-11-(2,2-dimethylpropyl)-2,2-dioxo-9-oxa-2λ^6-thia-3,5,12,19-tetrazatricyclo[12.3.1.14,8]nonadeca-1(18),4(19),5,7,14,16-hexaen-13-one] was tested, and the EC50 (Table 10) was 1 to 3 µM and the Emax [2] was over 60%.

With Cc1cccc(C)c1-c1cc2nc(n1)NS(=O)(=O)c1cccc(c1)C(=O)N(Cc1ccc(OCC(C)(C)O)cn1)[C@H](CC(C)(C)C)CO2 [Compound 51, (11R)-6-(2,6-Dimethylphenyl)-11-(2,2-dimethylpropyl)-12-[[5-(2-hydroxy-2-methyl-propoxy)-2-pyridyl]methyl]-2,2-dioxo-9-oxa-2λ^6-thia-3,5,12,19-tetrazatricyclo[12.3.1.14,8]nonadeca-1(18),4(19),5,7,14,16-hexaen-13-one] the activation at 10 µM [1] was over 60%, the EC50 (Table 11) was under 1 µM and the Emax [3] was over 60%.

Work on Cc1cccc(C)c1-c1cc2nc(n1)NS(=O)(=O)c1cccc(c1)C(=O)N(Cc1ccc(C3CCOCC3)cn1)[C@H](CC(C)(C)C)CO2 [Compound 52, (11R)-6-(2,6-Dimethylphenyl)-11-(2,2-dimethylpropyl)-2,2-dioxo-12-[(5-tetrahydropyran-4-yl-2-pyridyl)methyl]-9-oxa-2λ^6-thia-3,5,12,19-tetrazatricyclo[12.3.1.14,8]nonadeca-1(18),4(19),5,7,14,16-hexaen-13-one] yielded an EC50 (Table 11) of under 1 µM and an Emax [3] of over 60%.

Cc1cccc(C)c1-c1cc2nc(n1)NS(=O)(=O)c1cccc(c1)C(=O)N(Cc1ncccc1-c1cn[nH]c1)[C@H](CC(C)(C)C)CO2 [Compound 53, (11R)-6-(2,6-Dimethylphenyl)-11-(2,2-dimethylpropyl)-2,2-dioxo-12-[[3-(1H-pyrazol-4-yl)-2-pyridyl]methyl]-9-oxa-2λ^6-thia-3,5,12,19-tetrazatricyclo[12.3.1.14,8]nonadeca-1(18),4(19),5,7,14,16-hexaen-13-one] gave an activation at 10 µM (Table 10, at 10 μM, read-out: HBE activity at 10 (μM) (%)) of over 60%, an EC50 (Table 10) of under 1 µM and an Emax [2] of over 60%.

Cc1cccc(C)c1-c1cc2nc(n1)NS(=O)(=O)c1cccc(c1)C(=O)N(Cc1ncccc1O)[C@H](CC(C)(C)C)CO2 [Compound 54, (11R)-6-(2,6-Dimethylphenyl)-11-(2,2-dimethylpropyl)-12-[(3-hydroxy-2-pyridyl)methyl]-2,2-dioxo-9-oxa-2λ^6-thia-3,5,12,19-tetrazatricyclo[12.3.1.14,8]nonadeca-1(18),4(19),5,7,14,16-hexaen-13-one] showed an EC50 (Table 10) of under 1 µM and an Emax [2] of over 60%.

Work on Cc1cccc(C)c1-c1cc2nc(n1)NS(=O)(=O)c1cccc(c1)C(=O)N(Cc1ccc(N3CCOCC3)nc1)[C@H](CC(C)(C)C)CO2 [Compound 60, (11R)-6-(2,6-Dimethylphenyl)-11-(2,2-dimethylpropyl)-12-[(6-morpholino-3-pyridyl)methyl]-2,2-dioxo-9-oxa-2λ^6-thia-3,5,12,19-tetrazatricyclo[12.3.1.14,8]nonadeca-1(18),4(19),5,7,14,16-hexaen-13-one] yielded an EC50 (Table 10) of under 1 µM and an Emax [2] of over 60%.

With Cc1cccc(C)c1-c1cc2nc(n1)NS(=O)(=O)c1cccc(c1)C(=O)N(Cc1cncc(N(C)CC(C)(C)C)n1)[C@H](CC(C)(C)C)CO2 [Compound 62, (11R)-6-(2,6-Dimethylphenyl)-11-(2,2-dimethylpropyl)-12-({6-[(2,2-dimethylpropyl)(methyl)amino]pyrazin-2-yl}methyl)-9-oxa-2λ^6-thia-3,5,12,19-tetraazatricyclo[12.3.1.14,8]nonadeca-1(18),4,6,8(19),14,16-hexaene-2,2,13-trione] the EC50 (Table 11) was under 1 µM and the Emax [3] was over 60%.

Work on Cc1cccc(C)c1-c1cc2nc(n1)NS(=O)(=O)c1cccc(c1)C(=O)N(CC1CC(N3CC(C)OC(C)C3)C1)[C@H](CC(C)(C)C)CO2 (stereo partly drawn) [Compound 65, (11R)-12-[[3-(2,6-Dimethylmorpholin-4-yl)cyclobutyl]methyl]-6-(2,6-dimethylphenyl)-11-(2,2-dimethylpropyl)-2,2-dioxo-9-oxa-2λ^6-thia-3,5,12,19-tetrazatricyclo[12.3.1.14,8]nonadeca-1(18),4(19),5,7,14,16-hexaen-13-one] yielded an activation at 10 µM (read-out: HBE Activity at 10 μM (%)) of over 60%.

Cc1cccc(C)c1-c1cc2nc(n1)NS(=O)(=O)c1cccc(c1)C(=O)N(CC1CCN(c3ncccn3)CC1)[C@H](CC(C)(C)C)CO2 [Compound 109, (11R)-6-(2,6-Dimethylphenyl)-11-(2,2-dimethylpropyl)-2,2-dioxo-12-[(1-pyrimidin-2-yl-4-piperidyl)methyl]-9-oxa-2λ^6-thia-3,5,12,19-tetrazatricyclo[12.3.1.14,8]nonadeca-1(18),4(19),5,7,14,16-hexaen-13-one] showed an EC50 (Table 10) of under 1 µM and an Emax [2] of over 60%.

For Cc1cccc(C)c1-c1cc2nc(n1)NS(=O)(=O)c1cccc(c1)C(=O)N(CCc1cccc(N3CCOCC3)n1)[C@H](CC(C)(C)C)CO2 [Compound 110, (11R)-6-(2,6-Dimethylphenyl)-11-(2,2-dimethylpropyl)-12-[2-(6-morpholino-2-pyridyl)ethyl]-2,2-dioxo-9-oxa-2λ^6-thia-3,5,12,19-tetrazatricyclo[12.3.1.14,8]nonadeca-1(18),4(19),5,7,14,16-hexaen-13-one], the activation at 10 µM [1] was over 60%, the EC50 (Table 11) was under 1 µM and the Emax [3] was over 60%.

Cc1cccc(C)c1-c1cc2nc(n1)NS(=O)(=O)c1cccc(c1)C(=O)N(CCc1ccc(C3CCCCC3)cn1)[C@H](CC(C)(C)C)CO2 [Compound 112, (11R)-12-[2-(5-Cyclohexyl-2-pyridyl)ethyl]-6-(2,6-dimethylphenyl)-11-(2,2-dimethylpropyl)-2,2-dioxo-9-oxa-2λ^6-thia-3,5,12,19-tetrazatricyclo[12.3.1.14,8]nonadeca-1(18),4(19),5,7,14,16-hexaen-13-one] gave an EC50 (Table 11) of under 1 µM and an Emax [3] of over 60%.
